Reference: patent publication US4707468A, “Polypeptide” (Eisai Co., Ltd., priority 1984, dated 1987)

How the values were obtained:
mice = test: Toxicity (minimum lethal dose) in mice; type: in vivo; conditions: administered subcutaneously in mice
Source text: The relationship between the toxicity (minimum lethal dose) of the peptide compound obtained in Examples 1 and 2 of the present invention and the effective dose is shown in Table 4.
Effective dose and minimum lethal dose
when administered subcutaneously in mice

rabbit vas deferens = test: Opioid activity, rabbit vas deferens method (inhibition of electrically stimulated contraction); type: cell-based; conditions: electric stimulation 0.1 Hz, 1 ms, 90 volt
Description: The opioid activities of the compounds of the invention were examined by the method using rabbit vas deferens according to T. Oka, K. Negishi, M. Suda, T. Matsumiya, T. Inaza and M. Ueki, "Europ. J. Pharmacol.", Vol. 73, 235 (1980). In this test, mature male rabbits were sacrificed by introducing air into an […]. Immediately after death, a laparotomy was conducted and right and left vasa deferens were removed. The semen was pressed out of the ducts into Ringer's solution. A part of each duct was cut ([…] long from an end of the prostrate gland side). The pieces of the deferentaial ducts were suspened by means of a thread in a 6 ml constant-temperature glass cell and stimulated electrioally with an electric stimulation device having platinum electrodes under conditions of 0.1 Hz, 1 ms and 90 volt. A contraction due to the electric stimulation was recorded through a transducer.
The opioid activity was determined on the basis of the inhibition of the contraction due to the electric stimulation.
The results are shown in Table 3 in terms of 50% inhibitation concentration (IC50).
The following compounds obtained in the examples ere tested in the same way as described above.

Compound | Minimum Lethal Dose (mice) [mg/kg] | IC50 (rabbit vas deferens) [µM]
CCNC(=O)[C@@H](CC(C)C)NC(=O)[C@H](CCCNC(=N)N)N(C)C(=O)[C@H](CCCNC(=N)N)NC(=O)[C@H](CC(C)C)NC(=O)[C@H](Cc1ccccc1)NC(=O)CNC(=O)CNC(=O)[C@H](Cc1ccc(O)cc1)NC [Example 1, CH3 Tyr-Gly-Gly-Phe-Leu-Arg-CH3 Arg-D-Leu-NHC2 H5] | 100 | –
CN[C@@H](Cc1ccc(O)cc1)C(=O)NCC(=O)NCC(=O)N[C@@H](Cc1ccccc1)C(=O)N[C@@H](CC(C)C)C(=O)N[C@@H](CCCNC(=N)N)C(=O)N(C)[C@@H](CCCNC(=N)N)C(=O)N[C@H](C)C(=O)O [Example 30, CH3 Tyr-Gly-Gly-Phe-Leu-Arg-CH3 Arg-D-Ala-OH] | > 100 | –
CN[C@@H](Cc1ccc(O)cc1)C(=O)NCC(=O)NCC(=O)N[C@@H](Cc1ccccc1)C(=O)N[C@@H](CC(C)C)C(=O)N[C@@H](CCCNC(=N)N)C(=O)N(C)[C@@H](CCCNC(=N)N)C(=O)N(C)[C@@H](C)C(=O)O [Example 31, CH3 Tyr-Gly-Gly-Phe-Leu-Arg-CH3 Arg-CH3 Ala-OH] | > 100 | –
CC[C@H](C)[C@@H](C(=O)O)N(C)C(=O)[C@H](CCCNC(=N)N)N(C)C(=O)[C@H](CCCNC(=N)N)NC(=O)[C@H](CC(C)C)NC(=O)[C@H](Cc1ccccc1)NC(=O)CNC(=O)CNC(=O)[C@H](Cc1ccc(O)cc1)NC [Example 36, CH3 Tyr--Gly--Gly--Phe--Leu--Arg--CH3 Arg--CH3 Ile--OH] | > 100 | –
H-Tyr-Gly-Gly-Phe-Leu-Arg-Arg-Ile-Arg-Pro-Lys-Leu-Lys-Trp-Asp-Asn-Gln-OH [dynorphin A (1-17)] | – | 0.0174
